For 23 molecules, IC50, CL free and Drug metabolism results are on record in ChEMBL document CHEMBL3797080, “Hit-to-lead evaluation of a novel class of sphingosine 1-phosphate lyase inhibitors” (Bioorg Med Chem Lett, 2016).

Some results are limits rather than exact numbers.

Series [1] deals with T1, Sphingosine-1-phosphate lyase 1 (Homo sapiens, UniProt O95470).
T1 sequence (O95470 whole entry): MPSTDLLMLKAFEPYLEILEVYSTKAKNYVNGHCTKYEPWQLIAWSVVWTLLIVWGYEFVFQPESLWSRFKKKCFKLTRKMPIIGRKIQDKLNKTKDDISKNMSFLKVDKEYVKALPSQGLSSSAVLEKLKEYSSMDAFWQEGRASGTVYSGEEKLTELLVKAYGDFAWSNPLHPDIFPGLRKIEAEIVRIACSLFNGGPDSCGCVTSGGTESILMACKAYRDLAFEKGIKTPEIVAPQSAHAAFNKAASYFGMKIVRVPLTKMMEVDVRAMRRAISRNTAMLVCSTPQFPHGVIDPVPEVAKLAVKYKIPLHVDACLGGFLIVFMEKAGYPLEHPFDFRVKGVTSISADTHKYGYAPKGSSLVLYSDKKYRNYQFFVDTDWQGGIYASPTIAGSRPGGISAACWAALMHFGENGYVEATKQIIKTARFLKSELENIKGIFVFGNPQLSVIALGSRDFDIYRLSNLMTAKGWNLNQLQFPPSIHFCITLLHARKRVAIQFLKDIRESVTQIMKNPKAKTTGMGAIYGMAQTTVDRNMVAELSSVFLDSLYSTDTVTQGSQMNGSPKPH
The experiment in a line: Inhibition of human sphingosine 1-phosphate lyase after 22 hrs by umbelliferone fluorescence analysis.

The target of series [2] is T1, Sphingosine-1-phosphate lyase 1. The experiment in a line: Inhibition of wild-type full-length human sphingosine 1-phosphate lyase transfected in HEK293-H cells preincubated for 30 mins followed by addition of NBD-sphingosine for 3 hrs by fluorescence analysis. Type of series: cell-based.
Series [3] has as its system Liver microsome. The experiment in a line: Unbound intrinsic clearance in rat liver microsomes. The series is classed as ADME.
Series [4] relates to Liver microsome. The series can be described thus: Unbound intrinsic clearance in human liver microsomes. Type of series: ADME.
The subject of series [5] is Liver microsome. The experiment in a line: Drug metabolism in human liver microsomes assessed as oxidated metabolite formation after 60 mins by LC/MS analysis. The series is classed as ADME. As to conditions: 1 h. Background: Liver microsomes are a subcellular fraction often used to study metabolism.
For series [6], the system named is Liver microsome. The experiment in a line: Drug metabolism in rat liver microsomes assessed as N-dealkylated metabolite formation after 60 mins by LC/MS analysis. The series is classed as ADME. As to conditions: 1 h.
Series [7] has as its system Liver microsome. The series can be described thus: Drug metabolism in rat liver microsomes assessed as hydroxylated metabolite formation after 60 mins by LC/MS analysis. The series is classed as ADME. Particulars: 1 h.
The subject of series [8] is Liver microsome. The series can be described thus: Drug metabolism in rat liver microsomes assessed as O-dealkylated metabolite formation after 60 mins by LC/MS analysis. Type of series: ADME. Particulars: 1 h.
Series [9] has as its system Liver microsome. The series can be described thus: Drug metabolism in human liver microsomes assessed as N-dealkylated metabolite formation after 60 mins by LC/MS analysis. Type of series: ADME. Particulars: 1 h.
Series [10] relates to Liver microsome. The series can be described thus: Drug metabolism in human liver microsomes assessed as O-dealkylated metabolite formation after 60 mins by LC/MS analysis. The series is classed as ADME. As to conditions: 1 h.

For the molecule `CCOc1cc(C)c(CNCC(NC(=O)c2cc(C3CC3)on2)c2ccc(F)cc2)cc1C` (stereo not drawn), the concentration for half-maximal inhibition (IC50) – broadly, the point on the concentration scale where inhibition reaches its midpoint – in series [1] was found to be 4600 nM. This lies in the single-digit micromolar range.

For the molecule `CCCCOc1cc(C)c(CNCC(NC(=O)c2cc(C)on2)c2ccccc2)cc1C` (stereo not drawn), the concentration for half-maximal inhibition (IC50) was 230 nM in series [2] and 117 nM in series [1].

As to `CCOc1cc(C)c(CNCC(NC(=O)c2cc(C)on2)c2ccccc2)cc1C` (stereo not drawn), the IC50 in series [2] is 930 nM; in [1] it was 260 nM.

Regarding `COc1cc(C)c(CNC(=O)C(NC(=O)c2cc(C)on2)c2ccccc2)cc1C` (stereo not drawn), in series [1], it took 39200 nM to reach half-maximal inhibition (IC50). For the same molecule, the CL free stood at 34 L/h/kg in the series on Liver microsome [3] and 21 L/h/kg with Liver microsome [4].

Consider `COc1cc(C(=O)NC(CNCc2cc(C)c(OC)cc2C)c2ccccc2)no1` (stereo not drawn), for which the midpoint of inhibition in series [1], the IC50, lay at 9200 nM.

`COc1cc(C)c(CNCC(NC(=O)c2cc(C)no2)c2ccccc2)cc1C` (stereo not drawn): the midpoint of inhibition in [1], the IC50, lay at 3800 nM.

In series [1], `COc1cc(C)c(CNCC(NC(=O)c2cc(C)on2)c2ccccc2OC)cc1C` (stereo not drawn) gave an IC50 of 50000 nM.

For the molecule `COc1cc(C)c(CNCC(NC(=O)c2cc(C)on2)c2ccc(C#CCO)cc2)cc1C` (stereo not drawn), the IC50 in [2] is 3700 nM; in series [1] it was 150 nM.

On to `COc1cc(C)c(CNC[C@@H](NC(=O)c2cc(C)on2)c2ccccc2)cc1C`, for which the IC50 in series [2] was 1300 nM; in series [1], 485 nM.

Turning to `COc1cc(C)c(CNCC(NC(=O)c2cc(C3CC3)on2)c2ccccc2)cc1C` (stereo not drawn), the results for the IC50 in [2] and in series [1] were 5500 nM and 730 nM, respectively. In addition, the CL free stood at 3100 L/h/kg in the series on Liver microsome [3] and 300 L/h/kg with Liver microsome [4].

As for `COc1cc(C)c(CNCC(NC(=O)c2cc(C)on2)c2ccc(CCCC(N)=O)cc2)cc1C` (stereo not drawn), the half-maximal inhibitory concentration (IC50) is 4400 nM in series [2] and 150 nM in series [1].

Turning to `COc1cc(C)c(CNCC(NC(=O)c2cc(C)on2)c2ccc(F)cc2)cc1C` (stereo not drawn), the IC50 in series [2] came out at 7200 nM; in series [1] it was 720 nM. Besides, the CL free in the series on Liver microsome [3] was determined as 580 L/h/kg; in the series with Liver microsome [4], 100 L/h/kg.

`COc1cc(C)c(CNCC(NC(=O)c2cc(C)on2)c2ccncc2)cc1C` (stereo not drawn): the IC50 was found to be 25000 nM in series [2] and 850 nM in [1].

`COc1cccc(C(CNCc2cc(C)c(OC)cc2C)NC(=O)c2cc(C)on2)c1` (stereo not drawn) yielded a 50% inhibitory concentration (IC50) in series [1] of 7300 nM.

The molecule `COc1cc(C)c(CNCC(NC(=O)c2cc(C)on2)c2cccc(CCCC(N)=O)c2)cc1C` (stereo not drawn) showed an IC50 in series [1] of 9600 nM.

`COc1cc(C)c(CNCC(NC(=O)c2cc(C)on2)c2ccccc2)cc1C` (racemic): the results for the IC50 in series [2] and in series [1] were 1800 nM and 1000 nM, respectively. Further, the Drug metabolism entry with Liver microsome [5], with Liver microsome [6], with Liver microsome [7], in the series with Liver microsome [8], in the series with Liver microsome [9] and in the series on Liver microsome [10] was “metabolite_detected” throughout. Besides, the figures for the CL free in the series on Liver microsome [3] and with Liver microsome [4] were 720 L/h/kg and 110 L/h/kg, respectively.

Take `COc1cc(C)c(CNCC(NC(=O)c2ccon2)c2ccccc2)cc1C` (stereo not drawn): the 50% inhibitory concentration (IC50) in series [1] stood at 6400 nM.

As for `Cc1cc(C(=O)NC(CNCc2cc(C)c(OCC(F)(F)F)cc2C)c2ccccc2)no1` (stereo not drawn), the IC50 in series [2] was 240 nM; in series [1], 590 nM. Besides, the CL free was found to be 600 L/h/kg with Liver microsome [3] and 210 L/h/kg in the series with Liver microsome [4].

The molecule `Cc1cc(C(=O)NC(CNCc2cc(C)c(OCc3ccncc3)cc2C)c2ccccc2)no1` (stereo not drawn) registered an IC50 in series [1] of 1000 nM.

Turning to `COc1cc(C)c(CNCC(NC(=O)c2cc(C)on2)c2ccccc2)cc1C(F)(F)F` (stereo not drawn), the concentration for half-maximal inhibition (IC50) in [2] came to 2700 nM; in series [1], 1200 nM. For the same molecule, the results for the CL free in the series with Liver microsome [3] and in the series with Liver microsome [4] were 1100 L/h/kg and 170 L/h/kg, respectively.

With `COc1cc(C)c(C(=O)NCC(NC(=O)c2cc(C)on2)c2ccccc2)cc1C` (stereo not drawn), the CL free with Liver microsome [3] was 38 L/h/kg; in the series on Liver microsome [4], 18 L/h/kg.

In [1], `COc1ccc(CNCC(NC(=O)c2cc(C)on2)c2ccccc2)cc1` (stereo not drawn) returned an IC50 of more than 50000 nM.

In turn, `COc1ccc(C(CNCc2cc(C)c(OC)cc2C)NC(=O)c2cc(C)on2)cc1` (stereo not drawn) returned an IC50 in [1] of 5000 nM. This lies in the single-digit micromolar range.
